The text below walks through data of patent US20240100170A1, “CYCLIC-AMP RESPONSE ELEMENT BINDING PROTEIN (CBP) AND/OR ADENOVIRAL E1A BINDING PROTEIN OF 300 KDA (P300) DEGRADATION COMPOUNDS AND METHODS OF USE” (CULLGEN (SHANGHAI), INC., priority 2020, published 2024).

As a reminder, the IC50 is the concentration that gives 50% inhibition. Read a high IC50 as weaker potency in that assay.

The structures appear in SMILES notation. Where two headings read alike, the source gives them in different places.

For assay [1], the system named is LNCaP prostate cancer cell. Kind of assay: LNCaP cell viability (CellTiter-Glo). It is filed as cell-based. As to conditions: Homo sapiens, 72 h; LNCaP cell viability, 3 days, CellTiter-Glo; Table 4. The method in brief:
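CellTiter-Glo luminescence measured three days after dosing with a 12-point 3-fold compound dilution series. LNCaP cells seeded at 5000/well in RPMI 1640 with 10% FBS; data normalized to untreated controls and IC50 fitted by nonlinear least-squares regression.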
(In general: In ATP-based viability assays light output follows the ATP content of the culture.)

In another assay the target is P300 (Homo sapiens, UniProt Q09472). Kind of assay: percentage of inhibition (degradation) of p300 at 10 nM, Tables 2-4. It is filed as cell-based. Details: LNCaP or 22RV1 cells that express CBP/P300 proteins were treated with GNE-781 or the bivalent compounds; endogenous in cells; host or cells: LNCaP or 22RV1 (not given). As to conditions: read-out: Degradation (10 nM). As to the method:
Cultured cells or tissue chunks were washed with cold PBS once and lysed in cold RIPA buffer supplemented with protease inhibitors and phosphatase inhibitors (Beyotime Biotechnology). The solutions were then incubated at 4° C. for 30 minutes with gentle agitation to fully lyse cells. Cell lysates were centrifuged at 13,000 rpm for 10 minutes at 4° C. and pellets were discarded. Total protein concentrations in the lysates were determined by BCA assays (Beyotime Biotechnology). Cell lysates were mixed with Laemmli loading buffer to 1 X and heated at 99° C. for 5 min. Proteins were resolved on SDS-PAGE and visualized by chemiluminescence. Images were taken by a ChemiDoc MP Imaging system (Bio-Rad). Protein bands were quantitated using the accompanied software provided by Bio-Rad.

Chain of P300 (Q09472 whole entry): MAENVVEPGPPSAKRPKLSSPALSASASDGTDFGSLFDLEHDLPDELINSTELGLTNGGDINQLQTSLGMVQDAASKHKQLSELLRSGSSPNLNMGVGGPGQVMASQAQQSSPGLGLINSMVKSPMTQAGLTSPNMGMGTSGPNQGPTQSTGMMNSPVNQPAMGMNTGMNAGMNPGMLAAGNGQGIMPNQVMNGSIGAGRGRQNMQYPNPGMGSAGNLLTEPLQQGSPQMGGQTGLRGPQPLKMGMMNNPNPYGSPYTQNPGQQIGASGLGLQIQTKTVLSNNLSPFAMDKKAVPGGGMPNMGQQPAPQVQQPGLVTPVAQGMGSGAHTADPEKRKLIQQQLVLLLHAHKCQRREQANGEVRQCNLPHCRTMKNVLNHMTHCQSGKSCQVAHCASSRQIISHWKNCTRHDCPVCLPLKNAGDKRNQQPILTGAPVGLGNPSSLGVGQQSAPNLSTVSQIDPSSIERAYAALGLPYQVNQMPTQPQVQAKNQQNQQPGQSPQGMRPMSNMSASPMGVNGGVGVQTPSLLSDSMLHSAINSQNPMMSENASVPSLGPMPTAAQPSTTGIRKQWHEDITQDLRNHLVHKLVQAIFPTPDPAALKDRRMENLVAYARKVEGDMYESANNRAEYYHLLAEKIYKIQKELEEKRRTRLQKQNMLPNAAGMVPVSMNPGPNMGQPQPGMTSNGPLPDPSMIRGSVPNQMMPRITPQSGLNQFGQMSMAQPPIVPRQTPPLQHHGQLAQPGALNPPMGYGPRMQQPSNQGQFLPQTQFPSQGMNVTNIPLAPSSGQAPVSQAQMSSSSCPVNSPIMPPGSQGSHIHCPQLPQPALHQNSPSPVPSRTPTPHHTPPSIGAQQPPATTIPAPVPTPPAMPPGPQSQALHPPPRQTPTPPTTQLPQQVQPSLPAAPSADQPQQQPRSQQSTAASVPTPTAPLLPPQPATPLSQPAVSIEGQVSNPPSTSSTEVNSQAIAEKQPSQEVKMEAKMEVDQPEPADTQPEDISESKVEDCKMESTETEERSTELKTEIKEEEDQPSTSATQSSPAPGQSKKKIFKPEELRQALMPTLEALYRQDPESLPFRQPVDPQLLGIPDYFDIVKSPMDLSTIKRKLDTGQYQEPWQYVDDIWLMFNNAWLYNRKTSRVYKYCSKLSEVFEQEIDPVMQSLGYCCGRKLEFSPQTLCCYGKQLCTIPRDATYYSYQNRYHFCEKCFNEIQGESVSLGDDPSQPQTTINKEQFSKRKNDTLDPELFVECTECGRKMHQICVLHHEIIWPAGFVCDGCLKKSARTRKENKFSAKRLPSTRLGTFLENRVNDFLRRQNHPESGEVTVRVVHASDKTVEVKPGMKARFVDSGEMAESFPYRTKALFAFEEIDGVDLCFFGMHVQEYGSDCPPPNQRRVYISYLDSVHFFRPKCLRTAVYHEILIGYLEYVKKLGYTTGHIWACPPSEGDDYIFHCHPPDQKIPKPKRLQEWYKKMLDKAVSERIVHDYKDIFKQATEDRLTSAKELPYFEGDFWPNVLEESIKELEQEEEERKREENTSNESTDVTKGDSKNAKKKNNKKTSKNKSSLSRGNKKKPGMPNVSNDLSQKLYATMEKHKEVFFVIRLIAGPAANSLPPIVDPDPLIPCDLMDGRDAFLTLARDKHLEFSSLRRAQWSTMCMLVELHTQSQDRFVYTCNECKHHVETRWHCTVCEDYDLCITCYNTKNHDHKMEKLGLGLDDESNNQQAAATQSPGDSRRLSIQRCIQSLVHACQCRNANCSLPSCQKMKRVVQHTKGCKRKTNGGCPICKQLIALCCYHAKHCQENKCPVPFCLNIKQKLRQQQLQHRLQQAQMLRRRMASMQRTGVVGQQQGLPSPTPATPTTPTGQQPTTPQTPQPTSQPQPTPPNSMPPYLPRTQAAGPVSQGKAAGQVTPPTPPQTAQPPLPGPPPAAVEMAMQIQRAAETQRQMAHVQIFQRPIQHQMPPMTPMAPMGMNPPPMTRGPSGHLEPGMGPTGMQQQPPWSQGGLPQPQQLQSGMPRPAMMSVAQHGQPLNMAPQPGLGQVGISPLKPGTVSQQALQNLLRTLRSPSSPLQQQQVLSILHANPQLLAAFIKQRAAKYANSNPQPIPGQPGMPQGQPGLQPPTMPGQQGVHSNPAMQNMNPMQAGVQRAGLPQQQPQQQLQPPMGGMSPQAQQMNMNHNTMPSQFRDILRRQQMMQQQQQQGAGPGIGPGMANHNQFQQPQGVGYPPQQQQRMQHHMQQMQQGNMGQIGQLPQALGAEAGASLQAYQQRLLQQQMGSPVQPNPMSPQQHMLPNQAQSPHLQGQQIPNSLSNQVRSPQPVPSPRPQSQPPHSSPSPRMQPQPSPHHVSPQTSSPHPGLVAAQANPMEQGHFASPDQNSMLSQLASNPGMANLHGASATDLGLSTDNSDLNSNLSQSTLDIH

Regarding `CC(=O)N1CCc2c(c(N3CCCc4cc(-c5cnn(C)c5)c(C(F)F)cc43)nn2C2CCN(CCC3CCN(c4cccc5c4C(=O)N(C4CCC(=O)NC4=O)C5=O)CC3)CC2)C1` (stereo not shown) [P-192, 4-(4-(2-(4-(5-acetyl-3-(7-(difluoromethyl)-6-(1-methyl-1H-pyrazol-4-yl)-3,4-dihydroquinolin-1(2H)-yl)-4,5,6,7-tetrahydro-1H-pyrazolo[4,3-c]pyridin-1-yl)piperidin-1-yl)ethyl)piperidin-1-yl)-2-(2,6-dioxopiperidin-3-yl)isoindoline-1,3-dione], in assay [1], half-maximal inhibition (IC50) required 10.2 nM. The inhibition at 0.01 µM on P300 (p300, 10 nM, Table 4) fell in the range of 50 to 80%.
With `CC(=O)N1CCc2c(c(N3CCCc4cc(-c5cnn(C)c5)c(C(F)F)cc43)nn2C2CCN(CCCN3CCC(CNc4cccc5c4C(=O)N(C4CCC(=O)NC4=O)C5=O)CC3)CC2)C1` (stereo not shown) [P-193, 4-(((1-(3-(4-(5-acetyl-3-(7-(difluoromethyl)-6-(1-methyl-1H-pyrazol-4-yl)-3,4-dihydroquinolin-1(2H)-yl)-4,5,6,7-tetrahydro-1H-pyrazolo[4,3-c]pyridin-1-yl)piperidin-1-yl)propyl)piperidin-4-yl)methyl)amino)-2-(2,6-dioxopiperidin-3-yl)isoindoline-1,3-dione], in assay [1], the IC50 was determined as 3.2 nM. Besides, on P300 (p300, 10 nM, Table 4), the inhibition at 0.01 µM is more than 80%.
Compound `CC(=O)N1CCc2c(c(N3CCCc4cc(-c5cnn(C)c5)c(C(F)F)cc43)nn2C2CCN(Cc3ccc(COc4cccc5c4C(=O)N(C4CCC(=O)NC4=O)C5)cc3)CC2)C1` (stereo not shown) [P-194, 3-(7-((4-((4-(5-acetyl-3-(7-(difluoromethyl)-6-(1-methyl-1H-pyrazol-4-yl)-3,4-dihydroquinolin-1(2H)-yl)-4,5,6,7-tetrahydro-1H-pyrazolo[4,3-c]pyridin-1-yl)piperidin-1-yl)methyl)benzyl)oxy)-1-oxoisoindolin-2-yl)piperidine-2,6-dione] had an IC50 in assay [1] of 4.9 nM. Further, the inhibition at 0.01 µM on P300 (p300, 10 nM, Table 4) was more than 80%.
As for `CC(=O)N1CCc2c(c(N3CCCc4cc(-c5cnn(C)c5)c(C(F)F)cc43)nn2C2CCN(Cc3ccc(COc4cccc5c4C(=O)N(C4CCC(=O)NC4=O)C5=O)cc3)CC2)C1` (stereo not shown) [P-195, 4-((4-((4-(5-acetyl-3-(7-(difluoromethyl)-6-(1-methyl-1H-pyrazol-4-yl)-3,4-dihydroquinolin-1(2H)-yl)-4,5,6,7-tetrahydro-1H-pyrazolo[4,3-c]pyridin-1-yl)piperidin-1-yl)methyl)benzyl)oxy)-2-(2,6-dioxopiperidin-3-yl)isoindoline-1,3-dione], in assay [1], the IC50 was found to be 17.6 nM. For the same compound, the inhibition at 0.01 µM at P300 (p300, 10 nM, Table 4) lay in the range of 50 to 80%.
On the same counts, the results for `CC(=O)N1CCc2c(c(N3CCCc4cc(-c5cnn(C)c5)c(C(F)F)cc43)nn2C2CCN(Cc3ccc(CNc4cccc5c4CN(C4CCC(=O)NC4=O)C5=O)nc3)CC2)C1` (stereo not shown) [P-196, 3-(4-(((5-((4-(5-acetyl-3-(7-(difluoromethyl)-6-(1-methyl-1H-pyrazol-4-yl)-3,4-dihydroquinolin-1(2H)-yl)-4,5,6,7-tetrahydro-1H-pyrazolo[4,3-c]pyridin-1-yl)piperidin-1-yl)methyl)pyridin-2-yl)methyl)amino)-1-oxoisoindolin-2-yl)piperidine-2,6-dione] are 2.4 nM and more than 80%.
In assay [1], `CC(=O)N1CCc2c(c(N3CCCc4cc(-c5cnn(C)c5)c(C(F)F)cc43)nn2C2CCN(CCN3CCOC(CNc4cccc5c4C(=O)N(C4CCC(=O)NC4=O)C5)C3)CC2)C1` (stereo not shown) [P-198, 3-(7-(((4-(2-(4-(5-acetyl-3-(7-(difluoromethyl)-6-(1-methyl-1H-pyrazol-4-yl)-3,4-dihydroquinolin-1(2H)-yl)-4,5,6,7-tetrahydro-1H-pyrazolo[4,3-c]pyridin-1-yl)piperidin-1-yl)ethyl)morpholin-2-yl)methyl)amino)-1-oxoisoindolin-2-yl)piperidine-2,6-dione] yielded an IC50 of 2.4 nM. For the same compound, at P300, the inhibition at 0.01 µM is more than 80%.
For `CC(=O)N1CCc2c(c(N3CCCc4cc(-c5cnn(C)c5)c(C(F)F)cc43)nn2C2CCN(Cc3ccc(CNc4cccc5c4CN(C4CCC(=O)NC4=O)C5=O)cc3)CC2)C1` (stereo not shown) [P-200], half-maximal inhibition in assay [1] (IC50) was put at 7.9 nM. For the same compound, the inhibition at 0.01 µM on P300 (p300, 10 nM, Table 4) lay within 50 to 80%.
In assay [1], `CC(=O)N1CCc2c(c(N3CCCc4cc(-c5cnn(C)c5)c(C(F)F)cc43)nn2C2CCN(CCCCC3CN(c4cccc5c4C(=O)N(C4CCC(=O)NC4=O)C5=O)C3)CC2)C1` (stereo not shown) [P-201, 4-(3-(4-(4-(5-acetyl-3-(7-(difluoromethyl)-6-(1-methyl-1H-pyrazol-4-yl)-3,4-dihydroquinolin-1(2H)-yl)-4,5,6,7-tetrahydro-1H-pyrazolo[4,3-c]pyridin-1-yl)piperidin-1-yl)butyl)azetidin-1-yl)-2-(2,6-dioxopiperidin-3-yl)isoindoline-1,3-dione] gave a concentration for half-maximal inhibition (IC50) of 10.4 nM. For the same compound, the inhibition at 0.01 µM at P300 (p300, 10 nM, Table 4) was more than 80%.
Consider `CC(=O)N1CCc2c(c(N3CCCc4cc(-c5cnn(C)c5)c(C(F)F)cc43)nn2C2CCN(Cc3cccc(COc4cccc5c4CN(C4CCC(=O)NC4=O)C5=O)c3)CC2)C1` (stereo not shown) [P-202, 3-(4-((3-((4-(5-acetyl-3-(7-(difluoromethyl)-6-(1-methyl-1H-pyrazol-4-yl)-3,4-dihydroquinolin-1(2H)-yl)-4,5,6,7-tetrahydro-1H-pyrazolo[4,3-c]pyridin-1-yl)piperidin-1-yl)methyl)benzyl)oxy)-1-oxoisoindolin-2-yl)piperidine-2,6-dione], for which inhibition in assay [1] was half-maximal at 3.1 nM (IC50). Also, the inhibition at 0.01 µM on P300 (p300, 10 nM, Table 4) was in the range of 50 to 80%.
For the compound `CC(=O)N1CCc2c(c(N3CCCc4cc(-c5cnn(C)c5)c(C(F)F)cc43)nn2C2CCN(C(=O)CCN3CCC(Cn4c(=O)n(C5CCC(=O)NC5=O)c5ccccc54)CC3)CC2)C1` (stereo not shown) [P-205, 3-(3-((1-(3-(4-(5-acetyl-3-(7-(difluoromethyl)-6-(1-methyl-1H-pyrazol-4-yl)-3,4-dihydroquinolin-1(2H)-yl)-4,5,6,7-tetrahydro-1H-pyrazolo[4,3-c]pyridin-1-yl)piperidin-1-yl)-3-oxopropyl)piperidin-4-yl)methyl)-2-oxo-2,3-dihydro-1H-benzo[d]imidazol-1-yl)piperidine-2,6-dione], the concentration for half-maximal inhibition (IC50) in assay [1] came out at 158 nM. Further, on P300 (p300, 10 nM, Table 4), the inhibition at 0.01 µM is less than 20%.
The matching figures for `CC(=O)N1CCc2c(c(N3CCCc4cc(-c5cnn(C)c5)c(C(F)F)cc43)nn2C2CCN(C(=O)CCN3CCN(Cc4cccc5c4n(C)c(=O)n5C4CCC(=O)NC4=O)CC3)CC2)C1` (stereo not shown) [P-208, 3-(4-((4-(3-(4-(5-Acetyl-3-(7-(difluoromethyl)-6-(1-methyl-1H-pyrazol-4-yl)-3,4-dihydroquinolin-1(2H)-yl)-4,5,6,7-tetrahydro-1H-pyrazolo[4,3-c]pyridin-1-yl)piperidin-1-yl)-3-oxopropyl)piperazin-1-yl)methyl)-3-methyl-2-oxo-2,3-dihydro-1H-benzo[d]imidazol-1-yl)piperidine-2,6-dione]: 19.7 nM and more than 80%.
For the compound `CC(=O)N1CCc2c(c(N3CCCc4cc(-c5cnn(C)c5)c(C(F)F)cc43)nn2C2CCN(C(=O)CCCN3CCC(C#Cc4ccc5c(c4)n(C)c(=O)n5C4CCC(=O)NC4=O)CC3)CC2)C1` (stereo not shown) [P-211, 3-(5-((1-(4-(4-(5-acetyl-3-(7-(difluoromethyl)-6-(1-methyl-1H-pyrazol-4-yl)-3,4-dihydroquinolin-1(2H)-yl)-4,5,6,7-tetrahydro-1H-pyrazolo[4,3-c]pyridin-1-yl)piperidin-1-yl)-4-oxobutyl)piperidin-4-yl)ethynyl)-3-methyl-2-oxo-2,3-dihydro-1H-benzo[d]imidazol-1-yl)piperidine-2,6-dione], it took 3.5 nM to reach half-maximal inhibition in assay [1] (IC50). Moreover, on P300 (p300, 10 nM, Table 4), the inhibition at 0.01 µM is more than 80%.
On the same counts, the results for `CC(=O)N1CCc2c(c(N3CCCc4cc(-c5cnn(C)c5)c(C(F)F)cc43)nn2C2CCN(C(=O)CCN3CCC(C#Cc4ccc5c(c4)n(C)c(=O)n5C4CCC(=O)NC4=O)CC3)CC2)C1` (stereo not shown) [P-212, 3-(5-((1-(3-(4-(5-acetyl-3-(7-(difluoromethyl)-6-(1-methyl-1H-pyrazol-4-yl)-3,4-dihydroquinolin-1(2H)-yl)-4,5,6,7-tetrahydro-1H-pyrazolo[4,3-c]pyridin-1-yl)piperidin-1-yl)-3-oxopropyl)piperidin-4-yl)ethynyl)-3-methyl-2-oxo-2,3-dihydro-1H-benzo[d]imidazol-1-yl)piperidine-2,6-dione] are 5.5 nM and more than 80%.
The matching figures for `CC(=O)N1CCc2c(c(N3CCCc4cc(-c5cnn(C)c5)c(C(F)F)cc43)nn2C2CCN(C(=O)CCN3CCC(CNc4cccc5c4n(C)c(=O)n5C4CCC(=O)NC4=O)CC3)CC2)C1` (stereo not shown) [P-213, 3-(4-(((1-(3-(4-(5-Acetyl-3-(7-(difluoromethyl)-6-(1-methyl-1H-pyrazol-4-yl)-3,4-dihydroquinolin-1(2H)-yl)-4,5,6,7-tetrahydro-1H-pyrazolo[4,3-c]pyridin-1-yl)piperidin-1-yl)-3-oxopropyl)piperidin-4-yl)methyl)amino)-3-methyl-2-oxo-2,3-dihydro-1H-benzo[d]imidazol-1-yl)piperidine-2,6-dione]: 96.8 nM and less than 20%.
